According to PMC7047876, “Potent Chimeric Antimicrobial Derivatives of the Medicago truncatula NCR247 Symbiotic Peptide” (Frontiers in Microbiology, 2020):
Converted amounts (≈) assume the structure as drawn. “Also recorded” adds a separate entry of the source. Peptide text beside a SMILES is read from it.

What was measured:
Assay type in all cases: cell-based
[1] = system: human melanoma A375 cells; assay: XTT cell proliferation (cytotoxicity) assay; conditions: 72 h treatment, OD450, three biological repeats
Method: The cytotoxicity of peptides X1-NCR247C and NCR247C-X2 was determined against the human melanoma A375 cells with XTT cell proliferation assay kit (PanReac Applichem) and a benchtop microplate reader (Multiskan RC, Thermo Labsystems) according to the manufacturers’ instructions. A375 human melanoma cell line was obtained from ATCC and maintained in DMEM (Lonza) supplemented by 10% FBS (Euroclone) in a humidified incubator at 37°C and 5% CO2. A375 cells were seeded to 96-well plates (4,000 cells/well) and treated with the peptides for 72 h. Cells without peptides served as negative control and the blank sample was the medium. Reduction of the tetrazolium salt XTT by the viable cells to the orange colored compounds of formazan was measured at OD450. The XTT assay was performed in three biological repeats.

[2] = system: Listeria monocytogenes (ATCC 19111); assay: microbe, parasite or virus in culture; conditions: Listeria monocytogenes, ATCC19111; 3 h treatment in PPB (20 mM potassium-phosphate buffer, pH 7.4), 37°C, then plating on LB agar; read-out: Minimal bactericidal concentration (MBC) L. m.
Text: (§1) The pathogenic bacterial strains obtained from the ATCC (United States) and NCTC (National Collection of Type Cultures – England) were the Gram-positive: Enterococcus faecalis (ATCC 29212), Staphylococcus aureus (HNCMO112011), Listeria monocytogenes (ATCC 19111) and the Gram-negative: Pseudomonas aeruginosa (ATCC 27853), Escherichia coli (ATCC 8739), Salmonella enterica (ATCC 13076), Klebsiella pneumoniae (NCTC 13440), Acinetobacter baumannii (ATCC 17978).
(§2) Overnight bacterial cultures grown in LB were diluted and grown to OD600 = 0.2–0.6 at 37°C with shaking. After harvesting and washing bacteria in PPB, the suspensions were adjusted to OD600 = 0.1 corresponding to ∼10^7 bacteria/mL. Antimicrobial activity of the peptides and the antibiotics was determined in PPB in 96 well microplates using 10 μL bacterial suspension and 90 μL of the 2-fold serial dilutions of peptides or antibiotics. Peptides were tested from 25 μM to 0.125 μM whereas the antibiotics; carbenicillin (Cb) from Duchefa Biochemie (Prod.No. C0109.0025) and levofloxacin (Lvx) from Sigma-Aldrich (Prod.No. 28266-10MG-F) from […] to 0.1 μM. The microplates were incubated for 3 h at 37°C with 250 rpm shaking and then 5 μl from each sample was placed on LB agar and the growth of bacteria was monitored after overnight incubation at 37°C. The lowest concentration of the antimicrobial agents, which completely eliminated viable bacteria was the minimal bactericidal concentration (MBC).

[3] = system: Acinetobacter baumannii (ATCC 17978); assay: microbe, parasite or virus in culture; conditions: Acinetobacter baumannii, ATCC17978; 3 h treatment in PPB (20 mM potassium-phosphate buffer, pH 7.4), 37°C, then plating on LB agar; read-out: Minimal bactericidal concentration (MBC) A. b.
Text: as §1, §2

[4] = system: Klebsiella pneumoniae (NCTC 13440); assay: microbe, parasite or virus in culture; conditions: Klebsiella pneumoniae, NCTC13440; 3 h treatment in PPB (20 mM potassium-phosphate buffer, pH 7.4), 37°C, then plating on LB agar; read-out: Minimal bactericidal concentration (MBC) K. p.
Text: as §1, §2

[5] = system: Enterococcus faecalis (ATCC 29212); assay: microbe, parasite or virus in culture; conditions: Enterococcus faecalis, ATCC29212; 3 h treatment in PPB (20 mM potassium-phosphate buffer, pH 7.4), 37°C, then plating on LB agar; read-out: Minimal bactericidal concentration (MBC) E. f.
Text: as §1, §2

[6] = system: Escherichia coli (ATCC 8739); assay: microbe, parasite or virus in culture; conditions: Escherichia coli, ATCC8739; 3 h treatment in PPB (20 mM potassium-phosphate buffer, pH 7.4), 37°C, then plating on LB agar; read-out: Minimal bactericidal concentration (MBC) E. c.
Text: as §1, §2

[7] = system: Staphylococcus aureus (HNCMO112011); assay: microbe, parasite or virus in culture; conditions: Staphylococcus aureus; 3 h treatment in PPB (20 mM potassium-phosphate buffer, pH 7.4), 37°C, then plating on LB agar; read-out: Minimal bactericidal concentration (MBC) S. a.
Text: as §1, §2

[8] = system: Pseudomonas aeruginosa (ATCC 27853); assay: microbe, parasite or virus in culture; conditions: Pseudomonas aeruginosa, ATCC27853; 3 h treatment in PPB (20 mM potassium-phosphate buffer, pH 7.4), 37°C, then plating on LB agar; read-out: Minimal bactericidal concentration (MBC) P. a.
Text: as §1, §2

[9] = system: Salmonella enterica (ATCC 13076); assay: microbe, parasite or virus in culture; conditions: Salmonella enterica, ATCC13076; 3 h treatment in PPB (20 mM potassium-phosphate buffer, pH 7.4), 37°C, then plating on LB agar; read-out: Minimal bactericidal concentration (MBC) S. e.
Text: as §1, §2

[10] = system: ESKAPE bacteria, L. monocytogenes and S. enterica; assay: Antimicrobial activity in PPB, summarised over the tested bacteria
Text: as §1, §2

Question: For CC[C@H](C)[C@H](NC(=O)[C@H](CCCCN)NC(=O)[C@H](CCCCN)NC(=O)[C@H](C)NC(=O)[C@H](CC(C)C)NC(=O)[C@H](C)NC(=O)[C@H](C)NC(=O)[C@H](CC(C)C)NC(=O)[C@H](C)NC(=O)[C@H](CCCCN)NC(=O)[C@H](CCCNC(=N)N)NC(=O)[C@H](CCCNC(=N)N)NC(=O)[C@H](CCCNC(=N)N)NC(=O)[C@H](CS)NC(=O)[C@H](Cc1ccc(O)cc1)NC(=O)[C@H](CC(C)C)NC(=O)[C@@H]1CCCN1C(=O)[C@H](CCCNC(=N)N)NC(=O)[C@H](CCCNC(=N)N)NC(=O)[C@H](CS)NC(=O)[C@H](CCC(N)=O)NC(=O)[C@@H](N)CCC(N)=O)C(=O)N[C@@H](CC(C)C)C(N)=O [F, NCR247C-X2] (H-QQCRRPLYCRRRKALAALAKKIL-NH2; N-terminus assumed), which “Cytotoxicity / viability of A375 cells” value [1] is on record?
Answer: no cytotoxicity up to 12.5 μM; also recorded: slight decrease of the viable cell number was observed at 25 μM

Question: How did the MBC [2] turn out when C[C@H]1COc2c(N3CCN(C)CC3)c(F)cc3c(=O)c(C(=O)O)cn1c23 [Lvx, levofloxacin, reference compound] was run?
Answer: 320 µM (≈ 116 µg/mL)

Question: And the MBC [3]?
Answer: 20 µM (≈ 7.23 µg/mL)

Question: What about the MBC [4] of the same compound?
Answer: 320 µM (≈ 116 µg/mL)

Question: What about the MBC [5] of the same compound?
Answer: 160 µM (≈ 57.8 µg/mL)

Question: And the MBC [6]?
Answer: 5 µM (≈ 1.81 µg/mL)

Question: And the MBC [7]?
Answer: 2.5 µM (≈ 0.903 µg/mL)

Question: And the MBC [8]?
Answer: 1.3 µM (≈ 0.47 µg/mL)

Question: And the MBC [9]?
Answer: 1.3 µM (≈ 0.47 µg/mL)

Question: And the “MBC, range over the tested bacteria as summarised in the text” value ([10]; 3 h in PPB, carbenicillin range excludes L. monocytogenes, peptide G range excludes E. faecalis)?
Answer: 1.25 to 320 µM

Question: With “RNGCIVDPRCPY [N-terminal part, 12 amino acid long N-terminal half of NCR247]” as the compound, how does the “Antimicrobial activity on the tested bacteria” value ([10]; PPB, peptides tested up to 25 μM) read?
Answer: inactive
